# In patent US8093052B2, “Serum-free culture medium for the production of recombinant gonadotropins” (Ares Trading S.A., priority 2005, dated 2012):
# Like-named read-outs stand apart in the source and are kept apart here.
# Columns and labels:
# [1] = system: CHO cell line expressing both subunits of human FSH; assay: Total viable cells ratio (TVC ratio) during antioxidant test period; type: cell-based, Chinese Hamster; details: end of test/start of test, >=1.0 = no toxic effect
# Description: (§1) All experiments were performed with a CHO cell line expressing both subunits of human FSH. The produced protein is a dimeric gonadotropin further referred to as rFSH. The alpha subunit corresponds to SwissProt Accession No. P01215 and the beta subunit corresponds to SwissProt Accession No. P01225.
# (§2) At least 2.4.10^9 viable rFSH-producing cells were transferred to a 15 L bioreactor with an effective working volume of 11 L (newMBR, Zürich) comprising microcarriers. Immediately after seeding followed a batch phase that lasted for two or three days. The bioreactor was then continuously fed with SFM to a dilution rate of 1 day^−1 and to a perfusion rate at 11 L·day)^−1.
# The total viable cell concentration is defined as the sum of the concentration of cells attached on microcarriers and the concentration of viable cells in suspension.
# The Total Viable Cells Ratio (TVC Ratio) for was calculated as follows: [total viable cell concentration, end of test]/[total viable cell concentration, start of test] wherein the start of test is defined as the day at which a new antioxidant is introduced in the culture, and the end of test is defined as the day before the next antioxidant is introduced in the culture.
# (§3) The total viable cell concentration, the GCR and the rFSH titers were measured daily.
# [2] = system: oxidized forms of rFSH; assay: Oxidized forms of rFSH by RP-HPLC on crude harvest of CHO culture in serum-free medium with antioxidant; type: cell-based, human; details: for ranking of antioxidants for obtaining low levels of rFSH oxidized forms: Runs 1 and 2, Table II; for antioxidant quality from analyses of oxidized rFSH forms: antioxidant added to the culture medium, runs 3 to 5
# Description: as §1
# The medium used for cell cultivation was a basic serum-free medium (SFM) designed for cultivation of CHO cells. The SFM medium was supplemented with the antioxidant to be tested as detailed in Example 3.
# as §2
# Growth phase and production phase were performed at the same pH and temperature (37° C., pH=7). The Dissolved Oxygen (DO) was maintained at 50% air saturation during the whole run.
# Oxidized forms were determined by RP-HPLC on crude harvest as described by Bassett and Driebergen (Bassett and Driebergen, 2005).
# SFM was supplemented with several antioxidant or combination of antioxidants in order to reach the final concentration shown in Table II. Each antioxidant or combination of antioxidants was tested for a period of about ten days. The first day of the test, the volume of antioxidant solution necessary to reach the set-point was added. Every day thereafter, a certain amount of antioxidant was washed out from the bioreactor by perfusion and replaced by one time addition (for a dilution rate of 1 d^−1, 63.2% of the bioreactor volume was renewed every 24 h and this represents the amount of antioxidant to be replaced every day). At the end of the test period, the antioxidant was washed out from the bioreactor by perfusion, and replaced by another antioxidant to be tested.
# The percentage of oxidized forms of rFSH was measured at the end of each test (table II).
# One run (run 3) was performed to test various concentrations of L-glutathione (from 1 to 20 mg/L), and one run (run 4) was performed to test various concentrations of L-methionine (from 0.25 to 3 g/L) and. […] Working Day zero (WDO) is defined as the day during which the bioreactor is seeded. Production Day zero (PDO) is defined as the day during which the cell culture process is switch from growth phase to production phase. In addition, a run was performed without varying the antioxidant concentration. In this run, the L-methionine was added at 250 mg/L from the beginning (run 5). For all runs, the percentage of oxidized forms of rFSH was measured regularly (table IV).
# [3] = system: CHO cell line expressing both subunits of human FSH
# Description: The rFSH titer was measured by an immunofluorimetric assay, using the Delphia hFSH kit from Wallac-ADL (Cat. No. A017-201).
# The glucose consumption rate (GCR), expressed in gram per liter and per day, was calculated as follows: GCR=(G0−Gt)Dt+(Gt−1−Gt)
# G stands for “Glucose concentration” and D stands for “dilution rate”. The indexes refer to the following:
# as §3
structure (smiles),measurement,setting,value
OCCS [2-mercaptoethanol],TVC Ratio,"[1]; Run 1, 10 mg/L, WD50 to WD60",0.8
same,oxidized forms (normalized value),"[2]; Run 1, 10 mg/L, measured WD59, divided by 23.4% (L-cysteine 280 mg/L, run 2)",0.53
same,% of oxidized forms,"[2]; Run 1, mean concentration 10 mg/L, tested WD50 to WD60, measured WD59",12.3%
same,ranking of antioxidants for obtaining low levels of rFSH oxidized forms,[2],best antioxidants for obtaining low levels of rFSH oxidized forms
N[C@@H](CCC(=O)N[C@@H](CS)C(=O)NCC(=O)O)C(=O)O [L-glutathione],TVC Ratio,"[1]; Run 1, 3 mg/L, WD40 to WD50",1.2
same,"impact on viability of the cells, metabolism and productivity patterns",[3],did not have any major impact
same,oxidized forms (normalized value),"[2]; Run 1, 3 mg/L, measured WD50, divided by 23.4% (L-cysteine 280 mg/L, run 2)",0.61
same,% of oxidized forms,"[2]; Run 1, mean concentration 3 mg/L, tested WD40 to WD50, measured WD50",14.2%
same,decrease of percentage of oxidized forms,"[2]; Run 3, 2.5 mg/L, compared to run 1 and run 2 with L-cysteine as antioxidant",around 35%
same,% oxidized forms,"[2]; Run 3, mean concentration 1 mg/L, measured WD19",18.31%
same,% oxidized forms,"[2]; Run 3, mean concentration 2.5 mg/L, measured WD28",14.26%
same,% oxidized forms,"[2]; Run 3, mean concentration 5 mg/L, measured WD40",23.99%
same,ranking of antioxidants for obtaining low levels of rFSH oxidized forms,[2],best antioxidants for obtaining low levels of rFSH oxidized forms
same,antioxidant quality from analyses of oxidized rFSH forms,[2],good antioxidant
CSCC[C@H](N)C(=O)O [L-methionine],TVC Ratio,"[1]; Run 1, 186 mg/L, WD30 to WD40",1.4
same,TVC Ratio,"[1]; Run 1, 734 mg/L, WD60 to WD70",1.0
same,"impact on viability of the cells, metabolism and productivity patterns","[3]; in the range of concentration tested (runs 3 to 5), data not shown",did not have any major impact
same,oxidized forms (normalized value),"[2]; Run 1, 186 mg/L, measured WD38, divided by 23.4% (L-cysteine 280 mg/L, run 2)",0.61
same,oxidized forms (normalized value),"[2]; Run 1, 734 mg/L, measured WD70, divided by 23.4% (L-cysteine 280 mg/L, run 2)",0.60
same,% of oxidized forms,"[2]; Run 1, mean concentration 186 mg/L, tested WD30 to WD40, measured WD38",14.3%
same,% of oxidized forms,"[2]; Run 1, mean concentration 734 mg/L, tested WD60 to WD70, measured WD70",14.0%
same,% oxidized forms,"[2]; Run 4, mean concentration 250 mg/L, measured WD19",15.37%
same,% oxidized forms,"[2]; Run 4, mean concentration 500 mg/L, measured WD28",14.26%
same,% oxidized forms,"[2]; Run 4, mean concentration 1000 mg/L, measured WD40",13.56%
same,% oxidized forms,"[2]; Run 4, mean concentration 2000 mg/L, measured WD49",9.77%
same,% oxidized forms,"[2]; Run 4, mean concentration 3000 mg/L, measured WD59",12.66%
same,% oxidized forms,"[2]; Run 5, 250 mg/L from the beginning, measured WD16-17",16.91%
same,% oxidized forms,"[2]; Run 5, 250 mg/L from the beginning, measured WD20-21",14.45%
same,% oxidized forms,"[2]; Run 5, 250 mg/L from the beginning, measured WD22-23",12.94%
same,% oxidized forms,"[2]; Run 5, 250 mg/L from the beginning, measured WD24-25",12.16%
same,% oxidized forms,"[2]; Run 5, 250 mg/L from the beginning, measured WD26-27",10.54%
same,% oxidized forms,"[2]; Run 5, 250 mg/L from the beginning, measured WD28-29",12.83%
same,% oxidized forms,"[2]; Run 5, 250 mg/L from the beginning, measured WD30-31",13.21%
same,decrease of average percentage of oxidized forms,"[2]; Run 5, 250 mg/L, compared to run 1 and run 2 with L-cysteine as antioxidant",around 40%
same,ranking of antioxidants for obtaining low levels of rFSH oxidized forms,[2],best antioxidants for obtaining low levels of rFSH oxidized forms
same,antioxidant quality from analyses of oxidized rFSH forms,[2],good antioxidant
CC(=O)N[C@@H](CS)C(=O)O [N-acetyl-L-cysteine],TVC Ratio,"[1]; Run 2, 260 mg/L, WD30 to WD40",1.3
same,oxidized forms (normalized value),"[2]; Run 2, 260 mg/L, measured WD38, divided by 23.4% (L-cysteine 280 mg/L, run 2)",0.77
same,% of oxidized forms,"[2]; Run 2, mean concentration 260 mg/L, tested WD30 to WD40, measured WD38",18.1%
O=C1O[C@H]([C@@H](O)CO)C(O)=C1O [L-ascorbic acid],TVC Ratio,"[1]; Run 1, 10 mg/L, WD20 to WD30",1.3
same,oxidized forms (normalized value),"[2]; Run 1, 10 mg/L, measured WD30, divided by 23.4% (L-cysteine 280 mg/L, run 2)",0.74
same,% of oxidized forms,"[2]; Run 1, mean concentration 10 mg/L, tested WD20 to WD30, measured WD30",17.3%
"N[C@@H](CS)C(=O)O [L-cysteine, reference compound]",oxidized forms (normalized value),"[2]; Run 1, 280 mg/L, measured WD20, divided by 23.4% (L-cysteine 280 mg/L, run 2)",0.92
same,% of oxidized forms,"[2]; Run 1, mean concentration 280 mg/L, tested WD10 to WD20, measured WD20",21.5%
same,oxidized forms (normalized value),"[2]; Run 2, 280 mg/L, measured WD20, the reference itself (23.4%)",1.00
same,oxidized forms (normalized value),"[2]; Run 2, 350 mg/L, measured WD50, divided by 23.4% (L-cysteine 280 mg/L, run 2)",0.88
same,% of oxidized forms,"[2]; Run 2, mean concentration 280 mg/L, tested WD0 to WD20, measured WD20",23.4%
same,% of oxidized forms,"[2]; Run 2, mean concentration 350 mg/L, tested WD40 to WD50, measured WD50",20.5%
